From patent publication US20250340551A1, “SMALL MOLECULE MODULATORS OF STAT6” (Gilead Sciences, Inc., priority 2024, published 2025)

System: Eotaxin-3 (CCL26) release in human whole blood stimulated with IL-4
Assay: Human whole blood eotaxin-3 assay (IL-4 stimulated, Eotaxin-3 release)
Assay type: cell-based
Settings: Homo sapiens, 48 h
Experimental: This was a human whole blood assay using recombinant human Interleukin 4 to stimulate the blood and measuring the ability of the test compounds to inhibit eotaxin-3 release. The biological activities of the test compounds have been tested in human whole blood stimulated with IL-4 measuring Eotaxin-3 release. The test compounds were added to 384 well clear flat-bottom plate in a 4-fold serial dilution in triplicates using a liquid handler. Human whole blood stabilized in lithium-heparin tubes was added in a volume of 65 μL per well, resulting in a final DMSO concentration of 0.5%. The plate is incubated for 2 h at 37° C. under 5% CO2/95% air. Subsequently, 5 μL of recombinant human IL-4 (R&D Systems, cat #204-ILB) was added to the wells to a final concentration of 400 pM. The plate was incubated for 48 h at 37° C. under 5% CO2/95% air. The plate was spun down for 10 minutes at 500×g and 20 μL supernatant was harvested and transferred to a 384 well v-bottom plate using a liquid handler and stored at −20° C. until further analysis. 10 μL supernatant was used to measure the level of Eotaxin-3 (CCL26) using Human Eotaxin-3 MSD kit from Mesocsale (Cat #K251UEK-4). The assay was performed according to the manufacture instructions.
The data from the human whole blood eotaxin-3 assay is shown below for Examples 1u2, 1x1, 1af26, and 1af36 (where the effect in % is plotted against the test concentration in M on a log-scale).

Row | Compound | Emax [%]
1 | [2H]C([2H])([2H])N(C(=O)c1ccc(C2CCN([C@@H](C)c3cc4c(-c5cnc(N)cc5C#N)ccnc4n3C)CC2)cc1)C([2H])([2H])[2H] [Example 1af70, (S)-4-(1-(1-(4-(6-amino-4-cyanopyridin-3-yl)-1-methyl-1H-pyrrolo[2,3-b]pyridin-2-yl)ethyl)piperidin-4-yl)-N,N-bis(methyl-d3)benzamide] | 30 to 40
2 | [2H]C([2H])([2H])N(C(=O)c1cnc(C2=CCN(Cc3cc4c(-c5ccc(N)nc5)ccnc4n3C)CC2)cn1)C([2H])([2H])[2H] [Example 1af79, 5-(1-((4-(6-Aminopyridin-3-yl)-1-methyl-1H-pyrrolo[2,3-b]pyridin-2-yl)methyl)-1,2,3,6-tetrahydropyridin-4-yl)-N,N-bis(methyl-d3)pyrazine-2-carboxamide] | 20 to 30
3 | CNc1ccc(-c2ccnc3c2cc(CN2CC=C(c4ccc(C(=O)N(C)C)cn4)CC2)n3C)nn1 [Example 1p8, N,N-Dimethyl-6-[1-[[1-methyl-4-[6-(methylamino)pyridazin-3-yl]pyrrolo[2,3-b]pyridin-2-yl]methyl]-3,6-dihydro-2H-pyridin-4-yl]pyridine-3-carboxamide] | < 20

Same assay, conditions: Homo sapiens, Hec50, 48 h

Row | Compound | EC50 [nM]
4 | [2H]C([2H])([2H])N(C(=O)c1ccc(C2=CCN([C@@H](C)c3cc4c(-c5ncc(N)cc5C(F)(F)F)ccnc4n3C)CC2)cc1)C([2H])([2H])[2H] [Example 1af57, (S)-4-(1-(1-(4-(5-Amino-3-(trifluoromethyl)pyridin-2-yl)-1-methyl-1H-pyrrolo[2,3-b]pyridin-2-yl)ethyl)-1,2,3,6-tetrahydropyridin-4-yl)-N,N-bis(methyl-d3)benzamide] | 17900
5 | [2H]C([2H])([2H])N(C(=O)c1ccc(C2=CCN([C@@H](C)c3cc4c(-c5ccc(NC)nn5)ccnc4n3C)CC2)cc1)C([2H])([2H])[2H] [Example 1af60, (S)—N,N-bis(methyl-d3)-4-(1-(1-(1-methyl-4-(6-(methylamino)pyridazin-3-yl)-1H-pyrrolo[2,3-b]pyridin-2-yl)ethyl)-1,2,3,6-tetrahydropyridin-4-yl)benzamide] | 1290
6 | [2H]C([2H])([2H])N(C(=O)c1ccc(C2CCN([C@@H](C)c3cc4c(-c5cnc(N)nn5)ccnc4n3C)CC2)cc1)C([2H])([2H])[2H] [Example 1af64, (S)-4-(1-(1-(4-(3-amino-1,2,4-triazin-6-yl)-1-methyl-1H-pyrrolo[2,3-b]pyridin-2-yl)ethyl)piperidin-4-yl)-N,N-bis(methyl-d3)benzamide] | 3190
7 | [2H]C([2H])([2H])N(C(=O)c1ccc(C2CCN([C@@H](C)c3cc4c(-c5ncc(N)cc5OC)ccnc4n3C)CC2)cc1)C([2H])([2H])[2H] [Example 1af68, (S)-4-(1-(1-(4-(5-amino-3-methoxypyridin-2-yl)-1-methyl-1H-pyrrolo[2,3-b]pyridin-2-yl)ethyl)piperidin-4-yl)-N,N-bis(methyl-d3)benzamide] | 1090
8 | CN(C)C(=O)c1ccc(C2=CCN(Cc3cc4c(-c5ccc(N)nn5)ccnc4n3C)CC2)c(Cl)c1 [Example 1af77, 4-(1-((4-(6-Aminopyridazin-3-yl)-1-methyl-1H-pyrrolo[2,3-b]pyridin-2-yl)methyl)-1,2,3,6-tetrahydropyridin-4-yl)-3-chloro-N,N-dimethylbenzamide] | 871
9 | CN(C)C(=O)c1ccc(C2=CCN(Cc3cc4c(-c5ccc(N)nn5)ccnc4n3C)CC2)nc1 [Example 1af78, 1′-((4-(6-Aminopyridazin-3-yl)-1-methyl-1H-pyrrolo[2,3-b]pyridin-2-yl)methyl)-N,N-dimethyl-1′,2′,3′,6′-tetrahydro-[2,4′-bipyridine]-5-carboxamide] | 851
10 | CN(C)C(=O)c1ccc(C2CCN(Cc3cc4c(-c5ccc(N)c(C(=O)O)n5)ccnc4n3C)CC2)cc1 [Example 1k79, 3-Amino-6-[2-[[4-[4-(dimethylcarbamoyl)phenyl]-1-piperidyl]methyl]-1-methyl-pyrrolo[2,3-b]pyridin-4-yl]pyridine-2-carboxylic acid] | 7170
11 | [2H]C([2H])([2H])N(C(=O)c1ccc(N2CCN(Cc3cc4c(-c5ccc(NC)nn5)ccnc4n3C)CC2)c(C)c1)C([2H])([2H])[2H] [Example 1p4, 3-Methyl-4-[4-[[1-methyl-4-[6-(methylamino)pyridazin-3-yl]pyrrolo[2,3-b]pyridin-2-yl]methyl]piperazin-1-yl]-N,N-bis(trideuteriomethyl)benzamide] | 13300

The remaining lines, values ahead:

Row | EC50 [nM] | Compound
12 | 726 | [2H]C([2H])([2H])N(C(=O)c1ccc(C2=CCN([C@@H](C)c3cc4c(-c5cnc(N)c(F)c5)ccnc4n3C)CC2)cc1)C([2H])([2H])[2H] [Example 1af56, (S)-4-(1-(1-(4-(6-Amino-5-fluoropyridin-3-yl)-1-methyl-1H-pyrrolo[2,3-b]pyridin-2-yl)ethyl)-1,2,3,6-tetrahydropyridin-4-yl)-N,N-bis(methyl-d3)benzamide]
13 | 638 | [2H]C([2H])([2H])N(C(=O)c1ccc(C2=CCN([C@@H](C)c3cc4c(-c5cnc(N)c(C)c5)ccnc4n3C)CC2)cc1)C([2H])([2H])[2H] [Example 1af58, (S)-4-(1-(1-(4-(6-Amino-5-methylpyridin-3-yl)-1-methyl-1H-pyrrolo[2,3-b]pyridin-2-yl)ethyl)-1,2,3,6-tetrahydropyridin-4-yl)-N,N-bis(methyl-d3)benzamide]
14 | 611 | [2H]C([2H])([2H])N(C(=O)c1ccc(C2CCN([C@@H](C)c3cc4c(-c5ccc(N)c(C)n5)ccnc4n3C)CC2)cc1)C([2H])([2H])[2H] [Example 1af66, (S)-4-(1-(1-(4-(5-amino-6-methylpyridin-2-yl)-1-methyl-1H-pyrrolo[2,3-b]pyridin-2-yl)ethyl)piperidin-4-yl)-N,N-bis(methyl-d3)benzamide]
15 | 504 | [2H]C([2H])([2H])N(C(=O)c1ccc(C2=CCN(Cc3cc4c(-c5ccc(NC)nn5)ccnc4n3C)CC2)c(C)c1)C([2H])([2H])[2H] [Example 1p7, 3-Methyl-4-[1-[[1-methyl-4-[6-(methylamino)pyridazin-3-yl]pyrrolo[2,3-b]pyridin-2-yl]methyl]-3,6-dihydro-2H-pyridin-4-yl]-N,N-bis(trideuteriomethyl)benzamide]
16 | 308 | Cc1cc(C(=O)N(C)C)ccc1C1=CCN(Cc2cc3c(-c4ccc(N)nn4)ccnc3n2C)CC1 [Example 1af76, 4-(1-((4-(6-Aminopyridazin-3-yl)-1-methyl-1H-pyrrolo[2,3-b]pyridin-2-yl)methyl)-1,2,3,6-tetrahydropyridin-4-yl)-N,N,3-trimethylbenzamide]
17 | 262 | [2H]C([2H])([2H])N(C(=O)c1ccc(C2CCN([C@@H](C)c3cc4c(-c5ccc(NCCO)nc5)ccnc4n3C)CC2)cc1)C([2H])([2H])[2H] [Example 1af69, (S)-4-(1-(1-(4-(6-((2-hydroxyethyl)amino)pyridin-3-yl)-1-methyl-1H-pyrrolo[2,3-b]pyridin-2-yl)ethyl)piperidin-4-yl)-N,N-bis(methyl-d3)benzamide]
18 | 260 | [2H]C([2H])([2H])N(C(=O)c1ccc(C2=CCN([C@@H](C)c3cc4c(-c5ccc(N)nn5)ccnc4n3C)CC2)cc1)C([2H])([2H])[2H] [Example 1af59, (S)-4-(1-(1-(4-(6-aminopyridazin-3-yl)-1-methyl-1H-pyrrolo[2,3-b]pyridin-2-yl)ethyl)-1,2,3,6-tetrahydropyridin-4-yl)-N,N-bis(methyl-d3)benzamide]
19 | 159 | CN(C)C(=O)c1cc(F)c(C2=CCN(Cc3cc4c(-c5ccc(N)nn5)ccnc4n3C)CC2)c(Cl)c1 [Example 1af75, 4-(1-((4-(6-Aminopyridazin-3-yl)-1-methyl-1H-pyrrolo[2,3-b]pyridin-2-yl)methyl)-1,2,3,6-tetrahydropyridin-4-yl)-3-chloro-5-fluoro-N,N-dimethylbenzamide]
20 | 97 | [2H]C([2H])([2H])N(C(=O)c1ccc(C2CCN([C@@H](C)c3cc4c(-c5ccc(N)nc5OC)ccnc4n3C)CC2)cc1)C([2H])([2H])[2H] [Example 1af67, (S)-4-(1-(1-(4-(6-amino-2-methoxypyridin-3-yl)-1-methyl-1H-pyrrolo[2,3-b]pyridin-2-yl)ethyl)piperidin-4-yl)-N,N-bis(methyl-d3)benzamide]
21 | 46.3 | [2H]C([2H])([2H])N(C(=O)c1cnc(C2=CCN(Cc3cc4c(-c5ccc(N)nc5)ccnc4n3C)CC2)nc1)C([2H])([2H])[2H] [Example 1af73, 2-(1-((4-(6-Aminopyridin-3-yl)-1-methyl-1H-pyrrolo[2,3-b]pyridin-2-yl)methyl)-1,2,3,6-tetrahydropyridin-4-yl)-N,N-bis(methyl-d3)pyrimidine-5-carboxamide]
22 | 12.6 | [2H]C([2H])([2H])N(C(=O)c1cc(C)c(C2=CCN([C@@H](C)c3cc4c(-c5ccc(N)nn5)ccnc4n3C)CC2)c(F)c1)C([2H])([2H])[2H] [Example 1af81, (S)-4-(1-(1-(4-(6-aminopyridazin-3-yl)-1-methyl-1H-pyrrolo[2,3-b]pyridin-2-yl)ethyl)-1,2,3,6-tetrahydropyridin-4-yl)-3-fluoro-5-methyl-N,N-bis(methyl-d3)benzamide]
23 | 11.4 | Cc1cc(C(=O)N(C)C)cc(F)c1C1=CCN([C@@H](C)c2cc3c(-c4ccc(N)nn4)ccnc3n2C)CC1 [Example 1af80, (S)-4-(1-(1-(4-(6-aminopyridazin-3-yl)-1-methyl-1H-pyrrolo[2,3-b]pyridin-2-yl)ethyl)-1,2,3,6-tetrahydropyridin-4-yl)-3-fluoro-N,N,5-trimethylbenzamide]
